Results published in patent publication US20250243344A1, “COMPOUND, RUBBER BLEND CONTAINING THE COMPOUND, VEHICLE TIRE COMPRISING THE RUBBER BLEND IN AT LEAST ONE COMPONENT, PROCESS FOR PREPARING THE COMPOUND, AND USE OF THE COMPOUND AS AN ANTI-AGING AGENT AND/OR ANTIOXIDANT” (Continental Reifen Deutschland GmbH, priority 2022, published 2025).

Experiment: Measurement of oxidation induction time (OIT) by DSC
Settings: for Time at 180° C. (time to oxidation, oxidation induction time): isothermal 180° C., with liquid polyisoprene LIR-50, O2 atmosphere 50 ml/min, DSC peak
Experimental: The compound of formula III) was investigated under laboratory conditions for its potential protective effect as an aging stabilizer by measurement of the oxidation induction time.
To this end the compounds of formula III) and 6PPD in each case together with a polymer (liquid synthetic polyisoprene (IR), LIR-50, Kuraray, weight average molecular weight distribution Mw=54 000 g/mol, glass transition temperature Tg=−63° C.) were heated at constant temperature (180° C.) until onset of oxidation (start temperature 35° C., heating to 170° C. at a heating rate of 20 K/min (kelvin per minute), heating to 180° C. at a heating rate of 1 K/min; purge gas: nitrogen (N2), volume flow 50 ml/min).
The specimen was kept under isothermal conditions at 180° C. under an N2 atmosphere for 5 minutes and the atmosphere was then switched to an O2 atmosphere (volume flow 50 ml/min).
Oxidation was determined via a peak using DSC (differential scanning calorimetry).
The time in minutes to oxidation was measured.

| Compound | antioxidant effect compared to 6PPD (at 180° C., taking into account measurement accuracy of ± 10 minutes) | Time at 180° C. (time to oxidation, oxidation induction time) [min] |
| --- | --- | --- |
| CC(C)CC(C)Nc1ccc2[nH]c3c(c2c1)CCCC3 (stereo not drawn) [Formula III), 6-(1,3-dimethylbutylamino)-2,3,4,9-tetrahydro-1H-carbazole] | comparable antioxidant effect to 6PPD | 119 ± 10 |
| CC(C)CC(C)Nc1ccc(Nc2ccccc2)cc1 (stereo not drawn) [Formula 6PPD, N-(1,3-dimethylbutyl)-N′-phenyl-p-phenylenediamine, reference compound] | – | 116 ± 10 |
